For assay [1], the system named is isolated non-pregnant rat uterus. Description: Effect on isolated non-pregnant rat uterus (spontaneous contractions, organ bath). Also noted: species or system tissue. The settings on record: spontaneous contractions of uterine horn strip from estradiol-treated female SD rats, Locke solution, 37°C, 1 g tension, observed over 20 minutes. As to the method:
Female SD rats (l50∼l80 g) were used. 48 and 24 hours prior to use, rats were given estradiol (ovahormon benzoat : Trademark, Teikoku Hormone Mfg. Co., Ltd.) subcutaneously at a dose of 40 µg/rat to induce oestrus. The animals were killed and uterine horns were removed. Each strip was placed in an organ bath containing 25 ml Locke solution aerating with 95% O2, 5% CO2 at 37°C under l g tension. Contractions were recorded isometrically. After the spontaneous contractions were of a uniform size, test compound was added to organ bath. The motility was observed over a 20 minutes period. Effect of test compound was calculated by comparing contractions before and after test compound.

Assay [2] has as its system isolated rat distal colon. Nature of the assay: Effect on isolated rat distal colon (spontaneous contractions, organ bath). It counts as tissue-based. Conditions: spontaneous contractions of distal colon strip from male SD rats, Tyrode solution, 37°C, 0.5 g tension, observed over 30 minutes. Here is the method: Male SD rats (l80∼230 g) were used. Animals were fasted for 24 hours prior to experiment. Distal colon was removed immediately after sacrifice and placed in an organ bath containing 25 ml Tyrode solution aerating with 95% O2, 5% CO2 at 37°C. The strip was mounted under 0.5 g tension and spontaneous contractions were recorded isometrically. After the motility was of a uniform size, test compound was added to an organ bath and the contractions were observed over a 30 minutes period. Effect of test compound was calculated by comparing contractions before and after test compound.

As to “(1R,1'R,2'R)- and (1R,1'S,2'S)-1-(3-chlorophenyl)-2-[(7-ethoxycarbonylmethoxy-l-hydroxy-l,2,3,4-tetrahydro-2- naphthyl)amino]ethanol hydrochloride [Example 2]”, the IC50 (usually the concentration at which inhibition is half-maximal) in assay [1] came to 510 nM; in assay [2] it was 1.9 nM.
